# pEC50: −log10 of the molar value.
# How the values were obtained:
# WNV NTPase (NS3) = WNV NTPase (NS3) (West Nile virus, UniProt Q9Q6P4); experiment: NTPase assay; format: biochemical; details: 1 µM, control compound
# WNV protease (NS2b-NS3) = WNV protease (NS2b-NS3) (West Nile virus, UniProt Q9Q6P4); experiment: Protease assay; details: 25 µM, control compound
# WNV = details: ref Zou et al., 2008; cited from earlier work
compound,measurement,setting,value
"Nc1nc2c(ncn2[C@@H]2O[C@H](COP(=O)(O)OP(=O)(O)OP(=O)(O)O)[C@@H](O)[C@H]2O)c(=O)[nH]1 [nonradioactive GTP, GTP]",suppression of NTPase activity,WNV NTPase (NS3),> 85%
aprotinin,suppression of protease activity,WNV protease (NS2b-NS3),> 85%
O[C@H]1[C@H]2c3cc4c(cc3CN3CCC(=C[C@@H]1O)[C@H]23)OCO4 [lycorine],pEC50,WNV,6.64
same,TI,WNV,104

# From article PMC3214651 (Antiviral research, 2009)
